Measured values as given in US20100143262A1, “Method for Identifying Allergenic Proteins And Peptides” (priority 2008, published 2010).

Key:
[1] = system: serum IgE of cow's milk allergic patients; experiment: IgE binding capacity (IgE reactivity) of milk components with patients' sera; parameters: species or system human; settings: sera of cow's milk allergic patients (n=78)
Description: (§1) Sera from 78 patients who were selected according to a positive case history, positive skin-prick reactions and determination of specific IgE to cow's milk extract using the CAP-FEIA System (Phadia, Uppsala, Sweden) were used. Sera were obtained from five adults and 73 children (30 female and 43 male) from Austria, Germany, Italy, Spain and France.

[2] = system: Humanized Rat Basophil Leukaemia (RBL) cells (clone RBL-703/21); experiment: human RBL assay: β-hexosaminidase release of humanized RBL cells loaded with patients' serum IgE; format: cell-based; settings: for biological activity (% of patients): percentage of 78 patients' sera triggering β-hexosaminidase release, milk components 0.3 μg/ml; for extent of degranulation relative to the activity of the complete protein: synthetic alphaS1-casein-derived peptides
Description: A scientifically approved model to test biological reactivity of molecules is induction of histamine release from human basophil granulocytes (Purohit 2005). For this purpose a rat basophil leukaemia cell line expressing the α-chain of the human FcεRI receptor (Hoffmann et al., Int Arch Allergy Immunol, Vol 126(4), p. 277-285) was used. Different milk components (n=33) including whole milk extracts from different species, milk fractions, purified natural and recombinant cow's milk proteins, and recombinant protein fragments were tested. The percentages of 78 patients whose serum IgE antibodies trigger β-hexosaminidase release of the humanized RBL cells in response to the individual milk components were determined (FIG. 3).
as §1
Humanized Rat Basophil Leukaemia (RBL) cells (clone RBL-703/21) were incubated in microtiter plates overnight at 37° C. (7% CO2, 95% humidity) with 50 μl human sera, diluted 1:10. Afterwards cells were washed and exposed to milk components, diluted to 0.3 μg/ml protein in Tyrodes buffer containing 50% D2O and 0.1% BSA/HAS for 1 hour at 37° C. (7% CO2, 95% humidity). Spontaneous release of the cells was also evaluated. Finally, the cell supernatants were incubated with 50 μl assay solution (0.1 M citric acid or sodium citrate, pH 4.5, 160 μM 4-methyl umbelliferyl-N-acetyl-β-D-glucosaminide) in new microtiter plates at 37° C. (7% CO2, 95% humidity) for 1 h. The reactions were stopped by addition of 100 μl glycine buffer per well and the fluorescence measured at λex: 360 and λem: 465 using a fluorescence microplate reader. The specific hexosaminidase release of each sample was calculated using the formula: [(FlS−FlSp):(FlZ−FlSp)]×100 (where […] is the fluorescence of the sample; FlSp is the fluorescence of the spontaneous release and FlZ is the fluorescence of the total release).

[3] = system: patients' serum IgE; experiment: microarray IgE reactivity testing of ALA-derived peptides; format: binding, human; settings: sera from the 36 patients with IgE reactivity to rALA
Experimental: IgE reactivity testing to ALA-derived peptides:IgE reactivities of the ALA-derived peptides were determined by microarray analysis as described (Schulmeister et al., J Immunol. 182(11):7019-29). In brief, milk components were spotted onto a capillary-flow membrane on an ordinary microscope glass slide and incubated with 25 μl of patients' sera. Bound IgE antibodies were detected with a fluorescence-conjugated anti-IgE antibody at a wavelength of 670 nm. The cut off level was set for each patient as the double value of the individual value gained with human serum albumin.
In order to identify IgE-reactive epitopes of ALA, we synthesized 8 peptides spanning the ALA sequence (Table 2). […] The IgE reactivity of the 8 overlapping peptides was evaluated by microarray analysis using sera from the 36 patients showing IgE reactivity to rALA. […] In total 19 of the 36 patients with IgE reactivity to rALA reacted at least with one ALA-derived synthetic peptide.

[4] = system: IgE of sera from cow's milk allergic patients; experiment: dot blot IgE reactivity of nitrocellulose-dotted milk components; format: binding, human; settings: 1 μg dotted; sera from three cow's milk allergic patients, 1:20
Description: In FIG. 6 a Mascot search and the identification of beta-casein-derived peptides in hydrolyzed cow's milk is depicted. At the top beta-casein, the only identified milk allergen in mass spectrometry, is mentioned with its molecular mass and calculated pI. Below the search parameters and the obtained sequence coverage of beta-casein are given. […] The beta-casein allergen was identified with peptide matches: HQPHQPLPPT (calculated mass of 1.25 kDa, corresponding to aa 160-170 of beta-casein), VYPFPGPIPN (calculated mass of 1.19 kDa, corresponding to aa 74-84 of beta-casein), SSSEE (calculated mass of 0.65 kDa, corresponding to aa 31-36 of beta-casein), and PVVVPP (calculated mass of 0.87 kDa, corresponding to aa 96-103 of beta-casein). In FIG. 7 IgE reactivity testing of these peptides is shown (Table 1: cas b-1, 2, 3 and 4; FIG. 7). […] IgE reactivity of nitrocellulose-dotted cow's milk (CM), recombinant beta-casein (rBC), synthetic beta-casein-derived peptides (cas b-1, cas b-2, cas b-3, cas b-4), and recombinant alphaS1-casein (rAS1C) were analysed by dot blot assay. Nitrocellulose-bound milk components were incubated with the sera from three cow's milk allergic patients (lanes 1, 2 and 3) and a non-allergic individual (lane C). Bound IgE antibodies were detected with ^125I-labeled anti-IgE antibodies. […] Furthermore, they are different from the published major IgE binding regions of beta-casein (aa 1-16, aa 83-92, aa 135-144; Chatchatee 2001). None of the other IgE-reactive milk allergens and allergen fragments obtained by screening of the cDNA expression library (FIG. 1) were detected in the hydrolyzed milk sample which therefore could be identified as a non-allergenic preparation.
Hydrolyzed milk formula was analyzed by reversed-phase HPLC using a nano liquid chromatography system (Ultimate, LC Packings Dionex, The Netherlands) connected to the nanospray interface of a HCT-Ultra mass spectrometer (Bruker Daltonik, Germany). The obtained mass spectra were searched against the SwissProt protein databank using MASCOT (Matrix Science, London, United Kingdom) software search algorithms. For dot blot analysis 1 μg of protein was dotted onto nitrocellulose, and incubated with sera from milk allergic patients diluted 1:20 in PBST (PBS, 0.5% v/v Tween 20). Bound IgE antibodies were detected with 1:15 diluted ^125I-labelled anti-human IgE antibodies (IBL, Germany).

IgE binding (% of patients) [1] | IgE binding (% of patients) [3] | Substance | biological activity (% of patients) [2] | other results
1.3 % of patients |  | sheep serum albumin [SSA] | 2.6 % of patients | 
 | 0 % of patients | TFHTSGYDTQA1YQNNDSTE (TFHTSGYDTQAIYQNNDSTE) [Lac3, synthetic ALA-derived peptide] |  | 
 | 2.8 % of patients | MCVKKILDKVGINYWLAHKA [Lac7, synthetic ALA-derived peptide] |  | 
 |  | LSSSEE [cas b-3, synthetic peptide of β-casein] |  | IgE reactivity (dot blot) [4]: not IgE-reactive
35.9 % of patients |  | CLKKYKVPQLEIVPNSAEERLHSMKEGIHIAQQKE [Cas 4, synthetic peptide of αS1-casein] | 3.8 % of patients | extent of degranulation relative to the activity of the complete protein [2]: about a tenth
65.4 % of patients |  | alpha-lactalbumin [ALA] | 11.5 % of patients | 
21.8 % of patients |  | recombinant kappa-casein [rKC] | 6.4 % of patients | 
51.3 % of patients |  | beta-lactoglobulin variant B [BLGB] | 19.2 % of patients | 
 | 30.6 % of patients | EQLTKCEVFRELKDLKGYG [Lac1, synthetic ALA-derived peptide] |  | 
 | 11.1 % of patients | LAHKALCSEKLDQWLCEKL [Lac8, synthetic ALA-derived peptide] |  | 
30.8 % of patients |  | kappa-casein [KC] | 25.6 % of patients | 
15.4 % of patients |  | FGKEKVNELSKDIGSESTEDQAMEDIKQMEAES [Cas 2, synthetic peptide of αS1-casein] | 3.8 % of patients | extent of degranulation relative to the activity of the complete protein [2]: one fourth
41.0 % of patients |  | CPMIGVNQELAYFYPELFRQFYQLDAYPSGAWYYV [Cas 5, synthetic peptide of αS1-casein] | 5.1 % of patients | extent of degranulation relative to the activity of the complete protein [2]: about a tenth
37.2 % of patients |  | PLGTQYTDAPSFSDIPNPIGSENSEKTTMPLWC [Cas 6, synthetic peptide of αS1-casein] | 7.7 % of patients | extent of degranulation relative to the activity of the complete protein [2]: one fourth
 | 2.8 % of patients | ISCDKFLDDDLTDDIMCVKK [Lac6, synthetic ALA-derived peptide] |  | 
43.6 % of patients |  | RPKHPIKHQGLPQEVLNENLLRFFVAPFPEVC [Cas 1, synthetic peptide of αS1-casein] | 6.4 % of patients | 
50.0 % of patients |  | alpha-casein [AC] | 25.6 % of patients | 
 | 33.3 % of patients | LKGYGGVSLPEWVCTTFHTS [Lac2, synthetic ALA-derived peptide] |  | 
 |  | HQPHQPLPPTV [cas b-1, synthetic peptide of β-casein] |  | IgE reactivity (dot blot) [4]: not IgE-reactive
6.4 % of patients |  | bovine serum albumin [BSA] | 2.1 % of patients | 
46.2 % of patients |  | ISSSEEIVPNSVEQKHIQKEDVPSERYLGYEQLLRC [Cas 3, synthetic peptide of αS1-casein] | 2.6 % of patients | extent of degranulation relative to the activity of the complete protein [2]: about a tenth
 |  | VYPFPGPIIPNS [cas b-2, synthetic peptide of β-casein] |  | IgE reactivity (dot blot) [4]: not IgE-reactive
23.1 % of patients |  | recombinant beta-lactoglobulin [rBLG] | 12.8 % of patients | 
 |  | PVVVPPFL [cas b-4, synthetic peptide of β-casein] |  | IgE reactivity (dot blot) [4]: not IgE-reactive
 | 2.8 % of patients | WCKDDQNPHSSNICNISCDK [Lac5, synthetic ALA-derived peptide] |  | 
 | 5.6 % of patients | NDSTEYGLFQINNK1WCKDD (NDSTEYGLFQINNKIWCKDD) [Lac4, synthetic ALA-derived peptide] |  | 

Substance | IgE binding (% of patients) [1] | IgE binding (% of patients) [3] | biological activity (% of patients) [2] | other results
recombinant alpha-lactalbumin [rALA] | 25.6 % of patients | 100.0 % of patients | 21.8 % of patients | release compared with natural counterpart ([2]; recombinant versus natural alpha-lactalbumin): much higher release than its natural counterpart
